Read-outs that look alike come from different tables or passages of the source.
Assays:
Assay in all cases: cells
HT29 cells = conditions: for CC50: read-out: LC50; for IC (TGI): read-out: TGI
Excerpt: (§1) The aim of this assay is to evaluate the in vitro cytostatic (ability to delay or arrest tumor cell growth) or cytotoxic (ability to kill tumor cells) activity of the samples being tested.
(§2) A colorimetric assay, using sulforhodamine B (SRB) reaction has been adapted to provide a quantitative measurement of cell growth and viability (following the technique described by Skehan et al. J. Natl. Cancer Inst. 1990, 82, 1107-1112). Another colorimetric assay based on 3-(4,5-Dimethylthiazol-2-yl)-2,5-diphenyltetrazolium bromide (MTT) reduction to a purple formazan has been also used to assess the antiproliferative activity (following the technique described by Mosmann et al. J. Immunol. Meth. 1983, 65, 55-63).
(§3) These forms of assays employ 96-well cell culture microplates following the standards of the American National Standards Institute and the Society for Laboratory Automation and Screening (ANSI SLAS 1-2004 (R2012) Oct. 12, 2011. All the cell lines used in this study were obtained from the American Type Culture Collection (ATCC) and derive from different types of human cancer.
(§4) A549, HT29, MDA-MB-231 and PSN1 cells were maintained in Dulbecco's Modified Eagle Medium (DMEM) while PC-3 and 22Rv1 cells were maintained in Roswell Park Memorial Institute Medium (RPMI). All cell lines were supplemented with 10% Fetal Bovine Serum (FBS), 2 mM L-glutamine, 100 U/mL penicillin, and 100 […] at 37° C., 5% CO2 and 98% humidity. For the experiments, cells were harvested from subconfluent cultures using trypsinization and resuspended in fresh medium before counting and plating.
(§5) A549, HT29, MDA-MB-231 and PSN1 cells were seeded in 96 well microtiter plates, at 5000 cells per well in aliquots of 150 μL, and allowed to attach to the plate surface for 18 hours (overnight) in drug free medium. After that, one control (untreated) plate of each cell line was fixed (as described below) and used for time zero reference value. Culture plates were then treated with test compounds (50 μL aliquots of 4× stock solutions in complete culture medium plus 4% DMSO) using ten 2/5 serial dilutions (concentrations ranging from 10 to 0.003 μg/mL) and triplicate cultures (1% final concentration in DMSO). After 72 hours treatment, the antitumor effect was measured by using the SRB methodology: Briefly, cells were washed twice with PBS, fixed for 15 min in 1% glutaraldehyde solution at room temperature, rinsed twice in PBS, and stained in 0.4% SRB solution for 30 min at room temperature. Cells were then rinsed several times with 1% acetic acid solution and air-dried at room temperature.
(§6) Effects on cell growth and survival were estimated by applying the NCI algorithm (Boyd M R and Paull K D. Drug Dev. Res. 1995, 34, 91-104). The values obtained in triplicate cultures were fitted by nonlinear regression to a four-parameters logistic curve by nonlinear regression analysis.

PSN1 cells = conditions: for CC50: read-out: LC50; for IC (TGI): read-out: TGI
Excerpt: as §1, §2, §3, §4, §5, §6

MDA-MB-231 cells = conditions: for GI50 / CC50 / IC (TGI): Homo sapiens, MDA-MB-231, 72 h; for CC50: read-out: LC50; for IC (TGI): read-out: TGI
Excerpt: as §1, §2, §3, §4, §5, §6

A549 cells = conditions: for CC50: read-out: LC50; for IC (TGI): read-out: TGI
Excerpt: as §1, §2, §3, §4, §5, §6

[1] = Homo sapiens, PSN1, 72 h, PSN1, 72 hours treatment, SRB

SMILES | GI50 (HT29 cells; Homo sapiens, HT-29, 72 h) [nM] | CC50 (HT29 cells; Homo sapiens, HT-29, 72 h) [nM] | IC (TGI) (HT29 cells; Homo sapiens, HT-29, 72 h) [nM] | CC50 (PSN1 cells; Homo sapiens, PSN1, 72 h) [nM] | IC (TGI) (PSN1 cells; Homo sapiens, PSN1, 72 h) [nM] | CC50 (MDA-MB-231 cells) [nM] | IC (TGI) (MDA-MB-231 cells) [nM] | GI50 (A549 cells; Homo sapiens, A549, 72 h) [nM] | CC50 (A549 cells; Homo sapiens, A549, 72 h) [nM] | IC (TGI) (A549 cells; Homo sapiens, A549, 72 h) [nM] | also measured
COc1c(C)cc2c(c1O)[C@@H]1[C@@H]3[C@@H]4SC[C@]5(N[C@H](C)Cc6c5[nH]c5ccccc65)C(=O)OC[C@@H](c5c6c(c(C)c(OC(C)=O)c54)OCO6)N3[C@@H](C#N)[C@H](C2)N1C [A] | 7.71 | > 129 | 8.36 | 19.3 | 15.4 | 14.1 | 9.38 | 8.36 | > 129 | 8.87 | GI50 (PSN1 cells; Homo sapiens, PSN1, 72 h): 12.9 nM; GI50 (MDA-MB-231 cells): 7.07 nM
COc1c(C)cc2c(c1O)[C@@H]1[C@@H]3[C@@H]4SC[C@]5(N[C@@H](C)Cc6c5[nH]c5ccccc65)C(=O)OC[C@@H](c5c6c(c(C)c(OC(C)=O)c54)OCO6)N3[C@@H](C#N)[C@H](C2)N1C [B] | 8.48 | > 129 | 9.13 | 23.1 | 20.6 | 34.7 | 16.7 | 20.6 | > 129 | 21.9 | GI50 (PSN1 cells; Homo sapiens, PSN1, 72 h): 19.3 nM; GI50 (MDA-MB-231 cells): 9 nM
COc1c(C)cc2c(c1O)[C@@H]1[C@@H]3[C@@H]4SC[C@]5(N[C@@H](CO)Cc6c5[nH]c5ccccc65)C(=O)OC[C@@H](c5c6c(c(C)c(OC(C)=O)c54)OCO6)N3[C@@H](C#N)[C@H](C2)N1C [Compound 3-R] |  | > 126 | > 126 | > 126 | 0.605 | 1.25 | 0.504 |  | > 126 | 0.579 | GI50 (PSN1 cells; [1]): 0.39 nM
COc1c(C)cc2c(c1O)[C@@H]1[C@@H]3[C@@H]4SC[C@]5(N[C@H](COC(C)=O)Cc6c5[nH]c5ccccc65)C(=O)OC[C@@H](c5c6c(c(C)c(OC(C)=O)c54)OCO6)N3[C@@H](C#N)[C@H](C2)N1C [Compound 3a-S] | 2.99 | > 120 | 3.23 | 12 | 3.59 | 4.9 | 3.59 | 3.11 | > 120 | 3.23 | GI50 (PSN1 cells; [1]): 2.15 nM; GI50 (MDA-MB-231 cells): 2.87 nM
COc1c(C)cc2c(c1O)[C@@H]1[C@@H]3[C@@H]4SC[C@]5(N[C@H](COC(C)=O)Cc6c5[nH]c5ccccc65)C(=O)OC[C@@H](c5c6c(c(C)c(OC(C)=O)c54)OCO6)N3[C@@H](O)[C@H](C2)N1C [Compound 4a-S] |  | > 121 |  |  |  |  |  |  | > 121 |  | 
C=CCOC(=O)NC[C@H]1Cc2c([nH]c3ccccc23)[C@@]2(CS[C@@H]3c4c(OC(C)=O)c(C)c5c(c4[C@H](COC2=O)N2[C@@H]3[C@H]3c4c(cc(C)c(OC)c4O)C[C@@H]([C@@H]2C#N)N3C)OCO5)N1 [Compound 10-R] |  | > 114 | > 114 |  |  |  |  |  | > 114 |  | 
C=CCOC(=O)NC[C@@H]1Cc2c([nH]c3ccccc23)[C@@]2(CS[C@@H]3c4c(OC(C)=O)c(C)c5c(c4[C@H](COC2=O)N2[C@@H]3[C@H]3c4c(cc(C)c(OC)c4O)C[C@@H]([C@@H]2C#N)N3C)OCO5)N1 [Compound 10-S] |  | > 1140 |  |  |  |  |  |  |  |  | 
COc1c(C)cc2c(c1O)[C@@H]1[C@@H]3[C@@H]4SC[C@]5(N[C@@H](CN)Cc6c5[nH]c5ccccc65)C(=O)OC[C@@H](c5c6c(c(C)c(OC(C)=O)c54)OCO6)N3[C@@H](C#N)[C@H](C2)N1C [Compound 11-R] | 1.39 | > 126 | > 126 | > 126 | 1.89 |  |  | 1.77 | > 126 |  | GI50 (PSN1 cells; [1]): 1.39 nM
COc1c(C)cc2c(c1O)[C@@H]1[C@@H]3[C@@H]4SC[C@]5(N[C@H](CN)Cc6c5[nH]c5ccccc65)C(=O)OC[C@@H](c5c6c(c(C)c(OC(C)=O)c54)OCO6)N3[C@@H](C#N)[C@H](C2)N1C [Compound 11-S] |  | > 126 | > 126 |  |  |  |  |  | > 126 |  | 
C=CCOC(=O)NC[C@H]1Cc2c([nH]c3ccccc23)[C@@]2(CS[C@@H]3c4c(OC(C)=O)c(C)c5c(c4[C@H](COC2=O)N2[C@@H]3[C@H]3c4c(cc(C)c(OC)c4O)C[C@@H]([C@@H]2O)N3C)OCO5)N1 [Compound 13-R] |  | > 115 |  |  |  |  |  |  | > 115 |  | 
C=CCOC(=O)NC[C@@H]1Cc2c([nH]c3ccccc23)[C@@]2(CS[C@@H]3c4c(OC(C)=O)c(C)c5c(c4[C@H](COC2=O)N2[C@@H]3[C@H]3c4c(cc(C)c(OC)c4O)C[C@@H]([C@@H]2O)N3C)OCO5)N1 [Compound 13-S] |  | > 1150 |  |  |  |  |  |  |  |  | 
COc1c(C)cc2c(c1O)[C@@H]1[C@@H]3[C@@H]4SC[C@]5(N[C@H](C(=O)O)Cc6c5[nH]c5ccccc65)C(=O)OC[C@@H](c5c6c(c(C)c(OC(C)=O)c54)OCO6)N3[C@@H](C#N)[C@H](C2)N1C [Compound 14-S] | 121 | > 124 | > 124 | > 124 | > 124 | > 124 | 113 | > 124 | > 124 | > 124 | GI50 (PSN1 cells; Homo sapiens, PSN1, 72 h): > 124 nM; GI50 (MDA-MB-231 cells): 54.5 nM
COc1c(C)cc2c(c1O)[C@@H]1[C@@H]3[C@@H]4SC[C@]5(N[C@H](C(=O)O)Cc6c5[nH]c5ccccc65)C(=O)OC[C@@H](c5c6c(c(C)c(OC(C)=O)c54)OCO6)N3[C@@H](O)[C@H](C2)N1C [Compound 15-S] | 300 | 914 | 513 | 839 | 463 | 275 | 213 | > 1250 | > 1250 | > 1250 | GI50 (PSN1 cells; Homo sapiens, PSN1, 72 h): 238 nM; GI50 (MDA-MB-231 cells): 163 nM
COc1ccc2[nH]c3c(c2c1)C[C@H](CO)N[C@]31CS[C@@H]2c3c(OC(C)=O)c(C)c4c(c3[C@H](COC1=O)N1[C@@H]2[C@H]2c3c(cc(C)c(OC)c3O)C[C@@H]([C@@H]1C#N)N2C)OCO4 [Compound 18-R] |  |  | 1.34 |  | 1.06 | 1.46 | 1.34 |  |  | 1.34 | GI50 (PSN1 cells; [1]): 0.57 nM; GI50 (PSN1 cells; PSN1, 72 hours treatment, SRB): 0.571 nM
COc1c(C)cc2c(c1O)[C@@H]1[C@@H]3[C@@H]4SC[C@]5(N[C@@H](CO)Cc6c5oc5ccccc65)C(=O)OC[C@@H](c5c6c(c(C)c(OC(C)=O)c54)OCO6)N3[C@@H](O)[C@H](C2)N1C [Compound 39-R] |  | > 127 |  |  |  |  |  |  | > 127 |  | 
C=CCOC(=O)NC[C@H]1Cc2c(oc3ccccc23)[C@@]2(CS[C@@H]3c4c(OC(C)=O)c(C)c5c(c4[C@H](COC2=O)N2[C@@H]3[C@H]3c4c(cc(C)c(OC)c4O)C[C@@H]([C@@H]2C#N)N3C)OCO5)N1 [Compound 45-R] |  | > 114 |  |  |  |  |  |  |  |  | 
C=CCOC(=O)NC[C@@H]1Cc2c(oc3ccccc23)[C@@]2(CS[C@@H]3c4c(OC(C)=O)c(C)c5c(c4[C@H](COC2=O)N2[C@@H]3[C@H]3c4c(cc(C)c(OC)c4O)C[C@@H]([C@@H]2C#N)N3C)OCO5)N1 [Compound 45-S] |  | > 114 |  |  |  |  |  |  |  |  | 
COc1c(C)cc2c(c1O)[C@@H]1[C@@H]3[C@@H]4SC[C@]5(N[C@@H](CN)Cc6c5oc5ccccc65)C(=O)OC[C@@H](c5c6c(c(C)c(OC(C)=O)c54)OCO6)N3[C@@H](C#N)[C@H](C2)N1C [Compound 46-R] |  |  |  |  |  |  |  |  |  |  | TGI (HT29 cells; HT29, 72 hours treatment, SRB): 1.39E−09 Molar; CC50 (HT29 cells; HT29, 72 hours treatment, SRB): > 126 nM; TGI (MDA-MB-231 cells; MDA-MB-231, 72 hours treatment, SRB): 1.39E−09 Molar; TGI (A549 cells; A549, 72 hours treatment, SRB): 2.77E−09 Molar; CC50 (A549 cells; A549, 72 hours treatment, SRB): > 126 nM
COc1c(C)cc2c(c1O)[C@@H]1[C@@H]3[C@@H]4SC[C@]5(N[C@H](CN)Cc6c5oc5ccccc65)C(=O)OC[C@@H](c5c6c(c(C)c(OC(C)=O)c54)OCO6)N3[C@@H](C#N)[C@H](C2)N1C [Compound 46-S] |  | > 126 |  |  |  |  |  |  | > 126 |  | 
